In US20190365745A1, “USE OF CHRONIC TREATMENT WITH ATR INHIBITORS TO SENSITIZE CANCER CELLS TO PARP INHIBITORS” (Cornell University, priority 2018, published 2019):
“Also recorded” adds a separate entry of the source.

Key:
Assay type in all cases: cell-based, Human
[1] = system: U2OS cancer cells; test: Crystal violet staining survival assay; conditions: after 8 days of treatment, 2 or 8 days drug-free
Procedure: First, cells were treated for 5 days with either DMSO or 5 μM ATR inhibitor. Next, 1×10^5 cells of each cell type were plated onto a 10 cm dish and further treated with DMSO, ATR inhibitor and/or PARP inhibitor for additional 3 days. Cells were either fixed or allowed to recover after additional 2 or 8 days in drug-free media.
First, hTERT RPE-1, U2OS, HCT116, HeLa, A2780, or U87 cells were treated for 5 days with either DMSO or 5 μM ATR inhibitor. Next, 1×10^5 cells of each cell type were plated onto a 10 cm dish and further treated with DMSO, ATR inhibitor, and/or PARP inhibitor for an additional 3 days. Cells were then washed with PBS and either fixed in 100% methanol for 15 minutes at 4° C. or fixed after additional 2 or 8 days of culture in drug-free media. Fixed plates were stained with 0.1% crystal violet solution overnight followed by a distilled water wash. Pictures were taken after the plates were dried. For quantitation of cell viability, total viable cells were counted using a hematocytometer after indicated treatment.

[2] = system: U2OS cells; test: Immunoblotting of HR factor abundance
Procedure: FIG. 5A is a schematic diagram of the SILAC/MS experiment. FIG. 5B is a quadrant diagram of the SILAC/MS experiment. Each dot represents a different identified protein. Proteins with abundance reduced two-fold or more after ATRi treatment are shown in the upper-left corner (white quadrant). FIG. 5C is a WB analysis of U2OS cells after 8 days of chronic treatment with 5 μM of ATRi or ATMi. FIG. 5D is a time course WB analysis of U2OS cells during chronic treatment with 5 μM ATRi. FIG. 5E is a WB analysis of U2OS cells at distinct cell cycle stages. Cells were treated with 1 mM hydroxyurea (HU) or 50 ng/ml nocodazole (Noc) for 24 hours. HU treated cells were released for 2.5 hours in HU-free media. FIG. 5F is a WB analysis of U2OS cells untreated or treated for 8 days with 5 μM ATRi.
(§1) Human U2OS, HCT116, hTERT RPE-1, HEK293T, HeLa, U87, T98G, A2780, and human skin fibroblast cells (GM08398 and GM18366) were grown in DMEM media supplemented with 10% bovine calf serum, penicillin/streptomycin and non-essential amino acids. SV40 large T antigen transformed hTERT RPE-1 cells were generated by infecting hTERT RPE-1 cells with a SV40 large T antigen (SV40 LT)-expressing retrovirus and were selected using 500 μg/ml G418. The stable SV40 large T antigen transformed hTERT RPE-1 cell line was then maintained in culture media supplemented 500 μg/ml G418. For chronic treatment with ATR inhibitor (ATRi, VE-821) or ATM inhibitor (ATMi, KU-55933), cells were maintained in media with 5 μM ATR or ATM inhibitor respectively for 8 days before cells were subjected to western blot analysis, proteomic analysis, DR-GFP/EJ5-GFP assay or immunofluorescent staining. For CHK1 inhibitor (UCN-01), cells were treated for 5 days with 0.2 μM of inhibitor before the analysis. Primary human fibroblast cells from control subjects (GM08398) and patients with Seckel syndrome (GM18366, ATR-defective) were obtained from Coriell Institute for Medical Research, Camden, N.J.
(§2) Cells were harvested and lysed in modified radioimmunoprecipitation assay (RIPA) buffer (50 mM Tris-HCl pH 7.5, 150 mM NaCl, 1% tergitol, 0.25% sodium deoxycholate, 5 mM EDTA) supplemented with Complete EDTA-free protease inhibitor cocktail (Roche), 1 mM PMSF, 5 mM sodium fluoride, 10 mM β-glycerol-phosphate and 0.4 mM sodium orthovanadate. Whole cell lysates were cleared with 5 minute centrifugation at 13,000 rpm at 4° C. and mixed with 3×SDS sample buffer (bromophenol blue, stacking gel buffer, 50% glycerol, 3% SDS and 60 mM DTT). After being resolved on SDS-PAGE gels, proteins were then transferred onto polyvinylidene difluoride (PVDF) membranes and detected with designated antibodies.

[3] = system: U2OS cells; test: Cycloheximide protein stability western blot; conditions: CHX 50 μg/ml with 5 μM ATRi vs CHX alone
Procedure: Fresh media containing CHX or CHX/ATRi was added every 6 hours. The right panel is a bar graph generated by measuring the intensity of the BRCA1 band from three independent experiments. Two-tailed Student's t-test was used for the statistics (Error bars=SD, N=3, ****P-value<0.0001).
as §2

[4] = system: U2OS cells; test: Cell cycle analysis (propidium iodide, flow cytometry); conditions: chronic 5 μM ATRi
Procedure: Cells were harvested by standard trypsinization and fixed with 70% ethanol. After fixation, cells from each sample were resuspended in PBS, permeabilized using 0.1% Triton X-100 and treated with RNase A (0.8 mg/ml). Then cells were stained with propidium iodide and analyzed by flow cytometry using FACSAria Fusion (BD) or Accuri C6 cytometer (BD) to determine the fraction of cells in different stages of the cell cycle.

[5] = system: hTERT RPE-1 cells; test: Immunoblotting of HR factor abundance; conditions: 5 μM ATRi, 8 days
Procedure: (§3) FIGS. 14A-14B show WB analysis of hTERT RPE-1 (FIG. 14A) or HCT116 (colon cancer)(FIG. 14B) cells after 8 day chronic treatment with 5 μM ATRi or ATMi. […] FIGS. 14D-14E are bar graphs showing the analysis of HR-mediated repair using the DR-GFP system. Relative fold change of GFP positive hTERT RPE-1 (FIG. 14D) or HCT116 (FIG. 14E) cells over DMSO after ATRi treatment. (Error bars=SEM, N≥3, ****P-value<0.0001; one sample-t-test was used for the statistical analysis comparing 2 days versus 8 days of treatment).
(§4) Human U2OS, HCT116, hTERT RPE-1, HEK293T, HeLa, U87, T98G, A2780, and human skin fibroblast cells (GM08398 and GM18366) were grown in DMEM media supplemented with 10% bovine calf serum, penicillin/streptomycin and non-essential amino acids. […]
as §2, with “Whole cell lysates were cleared with 5 minute centrifugation at 13,000 rpm at 4° C. and mixed with 3×SDS sample buffer (bromophenol blue, stacking gel buffer, 50% glycerol, 3% SDS and 60 mM DTT).” left out

[6] = system: HCT116 (colon cancer) and indicated cancer cell lines; test: Immunoblotting of HR factor abundance in cancer cell lines; conditions: cancer cells; 5 μM ATRi, 8 days
Procedure: as §3, §4
as §2, with “Whole cell lysates were cleared with 5 minute centrifugation at 13,000 rpm at 4° C. and mixed with 3×SDS sample buffer (bromophenol blue, stacking gel buffer, 50% glycerol, 3% SDS and 60 mM DTT).” left out

[7] = system: HCT116 colon cancer cell line; test: DR-GFP assay of HR-mediated repair; conditions: ATRi 8 days vs 2 days
Procedure: as §3, §4
(§5) For the DR-GFP assay, cells (U2OS, HCT116, hTERT RPE-1, HEK293T, HeLa, U87, T98G, A2780, 293-T-REX-E2F6 cells and SV40 large T antigen transformed hTERT RPE-1) were transfected with the mCherry plasmid or DR-GFP reporter plasmid (pDR-GFP; addgene plasmid 26475) together with a plasmid coding for I-SceI (pCBASceI; addgene plasmid 26477) or DR-GFP reporter plasmid together with an empty plasmid pCAGGS. Two days after transfection, cells were trypsinized, resuspended in PBS and then analyzed by flow cytometry using FACSAria Fusion or Accuri C6 cytometer (BD). […]

[8] = system: hTERT RPE-1 cells; test: DR-GFP assay of HR-mediated repair; conditions: ATRi 8 days vs 2 days
Procedure: as §3, §4, §5

[9] = system: U2OS cells; test: DR-GFP assay of HR-mediated repair
Procedure: as §1
For the DR-GFP assay, cells (U2OS, HCT116, hTERT RPE-1, HEK293T, HeLa, U87, T98G, A2780, 293-T-REX-E2F6 cells and SV40 large T antigen transformed hTERT RPE-1) were transfected with the mCherry plasmid or DR-GFP reporter plasmid (pDR-GFP; addgene plasmid 26475) together with a plasmid coding for I-SceI (pCBASceI; addgene plasmid 26477) or DR-GFP reporter plasmid together with an empty plasmid pCAGGS. Two days after transfection, cells were trypsinized, resuspended in PBS and then analyzed by flow cytometry using FACSAria Fusion or Accuri C6 cytometer (BD). In each experiment, the percentage of GFP-positive cells from the sample transfected with empty plasmid pCAGGS was subtracted from the percentage of GFP-positive cells in the sample transfected with I-SceI. The GFP percentage was then normalized by the mCherry transfection efficiency. Each graph was plotted based on at least 3 independent experiments showing mean±SEM (N≥3). For the EJ5-GFP assay, EJ5-GFP reporter plasmid (pimEJ5GFP, addgene plasmid 44026) was used instead of DR-GFP reporter plasmid and the assay was performed as described for DR-GFP assay.

[10] = system: U2OS cells; test: DNA damage in cells undergoing chronic ATR inhibition alone

Compound: CS(=O)(=O)c1ccc(-c2cnc(N)c(C(=O)Nc3ccccc3)n2)cc1 [ATRi, VE-821]
- Recovery in drug-free media (crystal violet) [1]: recovered after switching to drug-free media
- Changes in abundance of NHEJ factors 53BP1 and PTIP (WB) ([2]; 5 μM ATRi, 8 days): minimal
- Changes in protein abundance, time course (WB) ([2]; 5 μM ATRi, after 2 and 4 days): minor changes in protein abundance
- Changes in protein abundance, time course (WB) ([2]; 5 μM ATRi, after 6 and 8 days): changes become more striking
- Abundance of several proteins involved in HR-mediated repair (WB) ([2]; chronic ATR inhibition): severely reduced
- Protein levels of RAD51 and TOPBP1 (WB) ([2]; chronic ATR inhibition, 5 μM, 8 days): reduced
- Abundance of the other HR proteins monitored in CHX-treated cells [3]: did not change
- Protein levels of BRCA1 in CHX-treated cells [3]: decreased
- Cell cycle distribution (S-phase cells) [4]: minor increase in the number of S-phase cells; also recorded: slight increase in S phase cells
- Abundance of BRCA1 (WB) [5]: did not result in major changes in the abundance of BRCA1
- Abundance of BRCA1 (WB) [6]: severe reduction in the abundance of BRCA1
- HR-mediated repair efficiency (DR-GFP), chronic vs short-term treatment [7]: significantly more severe than that of short-term treatment
- HR-mediated repair efficiency (DR-GFP), chronic vs short-term (2 day) treatment [8]: did not result in a striking drop in HR-mediated repair efficiency
- HR-mediated repair efficiency (DR-GFP, GFP positive cells over DMSO) ([9]; 5 μM, chronic 8 days): strikingly more severe impairment in HR-mediated repair as compared to short-term ATR inhibition
- HR (DR-GFP) upon short-term ATR inhibition ([9]; short-term (2 days) ATRi): modest reduction in HR
- DNA damage [10]: not detectable
